Article PMC5224969 (ChemMedChem, 2016)
Like-named read-outs stand apart in the source and are kept apart here.

Legend:
[1] = tested on: BV-173 cells; test: MTT cell viability assay, BV-173; assay type: cell-based, human; details: read-out: IC50 BV-173
[2] = biological target: T1, Abl (Homo sapiens, UniProt P00519); test: standard P32 kinase assay, IC50, Abl; assay type: biochemical; details: for Net change in IC50 (%Dasatinib) Abl: compared to dasatinib; for IC50: read-out: IC50 Abl, P32 kinase assay, CrkL substrate, 200 μM ATP
[3] = biological target: Csk (Homo sapiens, UniProt P41240); test: standard P32 kinase assay, IC50, Csk; assay type: biochemical; details: for Net change in IC50 (%Dasatinib) Csk: compared to dasatinib; for IC50: read-out: IC50 Csk, P32 kinase assay, polyE4Y substrate, 200 μM ATP
[4] = biological target: T2, Src (Homo sapiens, UniProt P12931); test: standard P32 kinase assay, IC50, Src catalytic domain; assay type: biochemical; details: for Net change in IC50 (%Dasatinib) Src: compared to dasatinib; for IC50: read-out: IC50 Src, P32 kinase assay, polyE4Y substrate, 200 μM ATP
[5] = tested on: PTK panel (Abl, Csk, Src); test: P32 kinase assay, average over the PTK panel; assay type: biochemical; details: average of Abl, compared to dasatinib
[6] = biological target: T1, Abl; test: screening at a fixed concentration against Abl; assay type: biochemical; details: fixed concentration 250 pM
[7] = biological target: T2, Src; test: screening at a fixed concentration against Src; assay type: biochemical; details: fixed concentration 250 pM
[8] = stability in mouse plasma, LC/MS/MS; assay type: in vitro ADME
[9] = tested on: K562 cells; test: MTT cell viability assay, K562; assay type: cell-based, human; details: read-out: IC50 K562
[10] = tested on: Panc-1 cells; test: MTT cell viability assay, Panc-1; assay type: cell-based, human

T2 sequence (P12931 270-523 limits assumed, species assumed): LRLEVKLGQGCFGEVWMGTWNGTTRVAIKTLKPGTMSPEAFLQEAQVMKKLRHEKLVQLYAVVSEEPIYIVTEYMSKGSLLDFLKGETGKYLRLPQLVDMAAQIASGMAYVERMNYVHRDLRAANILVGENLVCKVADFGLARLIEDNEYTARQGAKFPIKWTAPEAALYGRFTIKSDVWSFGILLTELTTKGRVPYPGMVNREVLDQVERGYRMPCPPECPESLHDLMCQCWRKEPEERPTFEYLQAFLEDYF
T1 sequence (P00519 whole entry, species assumed): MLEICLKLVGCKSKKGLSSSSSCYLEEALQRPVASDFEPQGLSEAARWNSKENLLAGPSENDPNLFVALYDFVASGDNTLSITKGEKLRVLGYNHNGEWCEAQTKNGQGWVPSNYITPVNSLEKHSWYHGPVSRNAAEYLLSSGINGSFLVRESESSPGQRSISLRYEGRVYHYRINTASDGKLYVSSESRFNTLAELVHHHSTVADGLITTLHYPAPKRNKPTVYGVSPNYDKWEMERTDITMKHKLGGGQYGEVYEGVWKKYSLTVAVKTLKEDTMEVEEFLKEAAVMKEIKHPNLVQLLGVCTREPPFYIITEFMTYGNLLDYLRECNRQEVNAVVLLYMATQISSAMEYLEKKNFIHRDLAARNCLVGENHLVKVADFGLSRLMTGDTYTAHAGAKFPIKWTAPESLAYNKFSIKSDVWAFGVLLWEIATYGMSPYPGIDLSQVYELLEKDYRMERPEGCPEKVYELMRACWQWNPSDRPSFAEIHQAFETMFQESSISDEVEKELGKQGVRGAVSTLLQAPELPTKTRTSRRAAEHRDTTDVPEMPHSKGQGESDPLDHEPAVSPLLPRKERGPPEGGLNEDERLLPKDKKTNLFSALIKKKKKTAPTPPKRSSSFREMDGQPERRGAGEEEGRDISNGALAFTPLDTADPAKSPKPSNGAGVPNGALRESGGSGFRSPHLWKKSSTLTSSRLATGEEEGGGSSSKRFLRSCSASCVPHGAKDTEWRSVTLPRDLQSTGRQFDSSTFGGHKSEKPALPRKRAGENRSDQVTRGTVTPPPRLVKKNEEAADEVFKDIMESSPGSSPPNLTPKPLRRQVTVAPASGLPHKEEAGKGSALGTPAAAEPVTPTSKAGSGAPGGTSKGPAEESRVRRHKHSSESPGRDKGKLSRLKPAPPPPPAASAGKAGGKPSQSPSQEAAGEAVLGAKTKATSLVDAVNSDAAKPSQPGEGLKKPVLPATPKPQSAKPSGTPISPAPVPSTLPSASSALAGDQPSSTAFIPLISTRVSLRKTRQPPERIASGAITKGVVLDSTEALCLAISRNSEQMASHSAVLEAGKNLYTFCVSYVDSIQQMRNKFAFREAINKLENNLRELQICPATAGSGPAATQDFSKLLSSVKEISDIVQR

Selectivity A/S (ratio of IC50 Abl over Src) [2] | Net change in IC50 (%Dasatinib) Abl [2] | IC50 [2] | Selectivity C/A (ratio of IC50 Csk over Abl) [3] | Selectivity C/S (ratio of IC50 Csk over Src) [3] | Net change in IC50 (%Dasatinib) Csk [3] | IC50 [3] | Net change in IC50 (%Dasatinib) Src [4] | IC50 [4] | Net change in IC50 (%Dasatinib) Avg [5] | inhibition relative to dasatinib, Abl [6] | inhibition relative to dasatinib, Src [7] | stability in mouse plasma ([8]; 0, 15, 30, 60, 120 min, dasatinib formation monitored) | T1/2 in mouse plasma ([8]; 0-120 min incubation) | IC50 ([9]; MTT, 72 h) | IC50 Panc-1 ([10]; MTT, 72 h) | IC50 ([9]; Homo sapiens, K562, 72 h) | IC50 ([10]; Homo sapiens, PANC-1, 72 h, read-out: IC50 Panc-1) | Structure (SMILES) | IC50 ([1]; Homo sapiens, BV-173, 72 h) | IC50 ([1]; MTT, 72 h)
 |  |  |  |  |  |  |  |  |  |  |  |  |  |  |  |  |  | CN[C@@H]1C[C@H]2O[C@@](C)([C@@H]1OC)n1c3ccccc3c3c4c(c5c6ccccc6n2c5c31)C(=O)NC4 [Staurosporine, staurosporine] | 4.77 nM | 
> 7.7 | 285% | 3 nM | 7.0 | > 53.8 | 200% | 21 nM | 5% | < 0.39 nM | 163% |  |  |  |  |  |  |  |  | Cc1nc(Nc2ncc(C(=O)Nc3c(C)cccc3Cl)s2)cc(N2CCN(CCOC(=O)[C@H](C)N)CC2)n1 [Compound 3] |  | 
> 6.4 | 169% | 2.1 nM | 2.6 | > 16.7 | −21% | 5.5 nM | −11% | < 0.33 nM | 46% | inhibited comparably to dasatinib | inhibited comparably to dasatinib | completely metabolized | < 5 min | < 0.0512 nM | no activity |  |  | CC(=O)OCCN1CCN(c2cc(Nc3ncc(C(=O)Nc4c(C)cccc4Cl)s3)nc(C)n2)CC1 [Compound 16] |  | < 0.0512 nM
 |  |  |  |  |  |  |  |  |  |  |  |  |  |  |  | < 0.0512 nM | 26300 nM | Cc1nc(Nc2ncc(C(=O)Nc3c(C)cccc3Cl)s2)cc(N2CCN(CCO)CC2)n1 [Compound 1, N-(2-chloro-6-methylphenyl)-2-((6-(4-(2-hydroxyethyl)piperazin-1-yl)-2-methylpyrimidin-4-yl)amino)thiazole-5-carboxamide, reference compound] | < 0.0512 nM | 
